Patent publication US9758484B2 (Asieris Pharmaceutical Technologies Co., Ltd., priority 2013, dated 2017)
Several values for one entry are separate records, joined by “and”; a condition that tells them apart may be missing. Identical values can stand only once. Counter-ions that a name gives are not always drawn. Like-named read-outs stand apart in the source and are kept apart here.

How the values were obtained:
[1] = Solubility tests of nitroxoline and nitroxoline salts in aqueous buffers and water; assay type: physicochemical; conditions: for solubility at 30 min: thermodynamic from solid; for solubility at a physiologically relevant pH: pH of 4.5 to 8, in contrast to nitroxoline and acid addition salts
Description: 1) Aqueous buffer solutions with varying pH were prepared as follows: • i. Water: distilled water; • ii. pH=1.2 buffer: 7.65 mL 36.5% HCl solution was diluted to 1000 mL with water; • iii. pH=4.5 buffer: 18 g sodium acetate and 9.8 mL acetic acid were diluted to 1000 mL with water; • iv. pH=5.0 buffer: sodium hydroxide was added to 0.2 mol/L monosodium phosphate (NaH2PO4) solution until the pH was adjusted to 5.0; • v. pH=6.0 buffer: 18 g sodium acetate were added into 20 mL acetic acid solution (1 M), and the mixture was diluted to 500 mL with water; • vi. pH=6.8 buffer: 250 mL of 0.2 M monopotassium phosphate (KH2PO4) solution were added to 118 mL of 0.2 M sodium hydroxide solution, and the mixture was diluted to 1000 mL with water; • vii. pH=7.4 buffer: 1.36 g monopotassium phosphate (KH2PO4) were added to 79 mL of 0.1 M sodium hydroxide solution, and the mixture was diluted to 200 mL with water; and • viii pH=8.0 buffer: 5.59 g potassium biphosphate (K2HPO4) and 0.41 g monopotassium. phosphate (KH2PO4) were added to 1000 mL water and mixed.
2) Solubility tests were performed generally as follows:
Under a temperature of 25±2° C., 10 mg of each salt sample was weighed and added to a 100 mL volumetric bottle. 0.25 mL buffer was added to the bottle, which was shaken vigorously for 30 seconds every 5 min.
If the sample was not completely dissolved, 0.7 mL of the same buffer was added, and dissolution was observed by the same shaking procedure.
If the sample was not completely dissolved, 8.5 mL of the same buffer was added, and dissolution was observed by the same shaking procedure.
If the sample was not completely dissolved, 85 mL of the same buffer was added, and dissolution was observed by the same shaking procedure.

[2] = In vivo urinary excretion of nitroxoline and nitroxoline salts in beagle dogs
Description: Urine samples were collected in the following periods of time: 0-2, 2-4, 4-6, 6-8, 8-24 h. Urine samples were analyzed by LC/MS/MS method utilizing an Agilent 1100 HPLC system with a CTC auto-sampler, an AB API4000 mass spectrometer, and a column of ACQUITY UPLC BEH C18 (2.1*50 mm) Dexamethasone was used as an internal standard. […] The range of linearity was determined to be 25˜5000 ng/mL.
(§1) The same study was repeated with APL-1092, nitroxoline lysine salt.

[3] = In vivo urinary excretion of nitroxoline and nitroxoline salts in mice; parameters: species or system CD-1 ICR mice
Description: Urine samples were collected in the following periods of time: 0-2, 2-6, 6-24 h. Due to the small volume of the urine from mice, the collecting system in the cage was washed with water at each collecting time. Urine samples and their wash samples were analyzed according to the same methods used in the beagle dog study (Example 24).
as §1

[4] = distilled water, 25 °C, water, distilled water, 25±2° C., read-out: Solubility water
[5] = pH 1.2 buffer (dilute HCl), 25 °C, pH 1.2, simulated gastric fluid, pH=1.2 buffer, 25±2° C., read-out: Solubility pH 1.2
[6] = pH 4.5 acetate buffer, 25 °C, pH 4.5, aqueous buffer, pH=4.5 buffer, 25±2° C., read-out: Solubility pH 4.5
[7] = pH 5.0 phosphate buffer, 25 °C, pH 5, aqueous buffer, pH=5.0 buffer, 25±2° C., read-out: Solubility pH 5
[8] = pH 6.0 acetate buffer, 25 °C, pH 6, aqueous buffer, pH=6.0 buffer, 25±2° C., read-out: Solubility pH 6
[9] = pH 6.8 phosphate buffer, 25 °C, pH 6.8, aqueous buffer, pH=6.8 buffer, 25±2° C., read-out: Solubility pH 6.8
[10] = pH 7.4 phosphate buffer, 25 °C, pH 7.4, aqueous buffer, buffer headed 'pH .4', 25±2° C., read-out: Solubility pH .4
[11] = pH 8.0 phosphate buffer, 25 °C, pH 8, aqueous buffer, pH=8.0 buffer, 25±2° C., read-out: Solubility pH 8.0

For `Cl.O=[N+]([O-])c1ccc(O)c2ncccc12` [APL-1071, Nitroxoline HCl Salt], the solubility at 30 min ([1]; aqueous buffers pH 1.2 to 8, 25 °C, pH 1.2, aqueous buffer, all pHs tested, from pH 1.2 to 8, read-out: solubility at all pHs tested) was less than 100 µg/mL, the solubility at 30 min [1, 4] was less than 100 µg/mL and the solubility at 30 min [1, 5] was less than 100 µg/mL. The solubility at 30 min [1, 6] was less than 100 µg/mL, the solubility at 30 min [1, 7] was less than 100 µg/mL and the solubility at 30 min [1, 8] was less than 100 µg/mL. It also gave a solubility at 30 min [1, 9] of less than 100 µg/mL, a solubility at 30 min [1, 10] of less than 100 µg/mL and a solubility at 30 min [1, 11] of less than 100 µg/mL.
With `O=[N+]([O-])c1ccc([O-])c2ncccc12.[Na+]` [APL-1072, Nitroxoline Sodium Salt] the solubility at 30 min [1, 4] was 1000 to 10000 µg/mL, the solubility at 30 min [1, 5] was less than 100 µg/mL and the solubility at 30 min [1, 6] was less than 100 µg/mL. It also gave a solubility at 30 min [1, 7] of less than 100 µg/mL, a solubility at 30 min [1, 8] of less than 100 µg/mL and a solubility at 30 min [1, 9] of less than 100 µg/mL. For the same compound, the solubility at 30 min [1, 10] was less than 100 µg/mL, the solubility at 30 min [1, 11] was less than 100 µg/mL and the “solubility at a physiologically relevant pH” value [1] was “significantly improved solubility”.
`Br.O=[N+]([O-])c1ccc(O)c2ncccc12` [APL-1074, Nitroxoline HBr Salt] gave a solubility at 30 min [1, 4] of less than 100 µg/mL, a solubility at 30 min [1, 5] of 1000 to 10000 µg/mL and a solubility at 30 min [1, 6] of less than 100 µg/mL. It also gave a solubility at 30 min [1, 7] of less than 100 µg/mL, a solubility at 30 min [1, 8] of less than 100 µg/mL and a solubility at 30 min [1, 9] of less than 100 µg/mL. It also gave a solubility at 30 min [1, 10] of less than 100 µg/mL and a solubility at 30 min [1, 11] of less than 100 µg/mL.
`O=[N+]([O-])c1ccc(O)c2ncccc12` [APL-1075, Nitroxoline HNO3 Salt] gave a solubility at 30 min [1, 6] of less than 100 µg/mL, a solubility at 30 min [1, 7] of less than 100 µg/mL and a solubility at 30 min [1, 8] of less than 100 µg/mL. The solubility at 30 min [1, 9] was less than 100 µg/mL.
`O=[N+]([O-])c1ccc([O-])c2ncccc12.[K+]` [APL-1077, Nitroxoline Potassium Salt] gave a solubility at 30 min [1, 4] of 1000 to 10000 µg/mL, a solubility at 30 min [1, 5] of less than 100 µg/mL and a solubility at 30 min [1, 6] of less than 100 µg/mL. It also gave a solubility at 30 min [1, 7] of less than 100 µg/mL, a solubility at 30 min [1, 8] of less than 100 µg/mL and a solubility at 30 min [1, 9] of less than 100 µg/mL. The solubility at 30 min [1, 10] was less than 100 µg/mL, the solubility at 30 min [1, 11] was 1000 to 10000 µg/mL and the “solubility at a physiologically relevant pH” value [1] was “significantly improved solubility”.
With `O=[N+]([O-])c1ccc(O)c2ncccc12` [APL-1092, Nitroxoline Lysine Salt] the “24-Hr Accumulated drug in the urine” value ([2]; In Dogs, 75 mg APL-1202 or equivalent amount) was 617 µg, the “increase in drug excretion in the urine as compared to nitroxoline” value ([2]; beagle dogs, dosed at the equivalent amount of nitroxoline in moles) was “more than five times” and the “f (%): percentage of total mass of excreted drug versus the dose amount” value ([2]; individual dogs, oral tablet, 75 mg nitroxoline equivalent) was 1.1% and 0.419% and 0.949%. The “Total mass of nitroxoline in urine” value ([2]; individual dogs, oral tablet, 75 mg nitroxoline equivalent, 0-24 hr) was 825000 ng and 313943 ng and 711720 ng, the “Mass of nitroxoline in urine, 0-2 hr” value ([2]; individual dogs, oral tablet, 75 mg nitroxoline equivalent, collection 0-2 hr) was 0 ng and 15153 ng and 163020 ng and the “Mass of nitroxoline in urine, 2-4 hr” value ([2]; individual dogs, oral tablet, 75 mg nitroxoline equivalent, collection 2-4 hr) was 0 ng and 130150 ng and 219300 ng. For the same compound, the “Mass of nitroxoline in urine, 4-6 hr” value ([2]; individual dogs, oral tablet, 75 mg nitroxoline equivalent, collection 4-6 hr) was 0 ng (2×) and 96900 ng, the “Mass of nitroxoline in urine, 6-8 hr” value ([2]; individual dogs, oral tablet, 75 mg nitroxoline equivalent, collection 6-8 hr) was 0 ng (2×) and 22165 ng and the “Mass of nitroxoline in urine, 8-24 hr” value ([2]; individual dogs, oral tablet, 75 mg nitroxoline equivalent, collection 8-24 hr) was 825000 ng and 49575 ng and 329400 ng. For the same compound, the “f (%): percentage of total mass of excreted drug versus the dose amount, Mean” value ([2]; mean of dogs, oral tablet, 75 mg nitroxoline equivalent) was 0.823%, the “Total mass of nitroxoline in urine, Mean” value ([2]; mean of dogs, oral tablet, 75 mg nitroxoline equivalent, 0-24 hr) was 616888 ng and the “Mass of nitroxoline in urine, 0-2 hr, Mean” value ([2]; mean of dogs, oral tablet, 75 mg nitroxoline equivalent, collection 0-2 hr) was 89086 ng. For the same compound, the “Mass of nitroxoline in urine, 2-4 hr, Mean” value ([2]; mean of dogs, oral tablet, 75 mg nitroxoline equivalent, collection 2-4 hr) was 174725 ng, the “Mass of nitroxoline in urine, 4-6 hr, Mean” value ([2]; mean of dogs, oral tablet, 75 mg nitroxoline equivalent, collection 4-6 hr) was 96900 ng and the “Mass of nitroxoline in urine, 6-8 hr, Mean” value ([2]; mean of dogs, oral tablet, 75 mg nitroxoline equivalent, collection 6-8 hr) was 22165 ng. For the same compound, the “Mass of nitroxoline in urine, 8-24 hr, Mean” value ([2]; mean of dogs, oral tablet, 75 mg nitroxoline equivalent, collection 8-24 hr) was 401325 ng, the “24-Hr Accumulated drug in the urine” value ([3]; In Mice, 41.8 mg/Kg APL-1202 or equivalent dose, 41.8 mg/kg) was 139 µg and the “Total mass of nitroxoline in urine and wash” value ([3]; individual mice, oral, equivalent of 41.8 mg/Kg nitroxoline, 0-24 hr, 41.8 mg/kg) was 174297 ng and 118681 ng and 56516 ng and 155110 ng and 87439 ng and 143396 ng. The “f (%): percentage of total mass of excreted drug versus the dose amount” value ([3]; individual mice, oral, equivalent of 41.8 mg/Kg nitroxoline, 41.8 mg/kg) was 34.7% and 22.3% and 11.1% and 28.4% and 17.7% and 19.8%, the “Mass of nitroxoline, 0~2 wash” value ([3]; individual mice, oral, equivalent of 41.8 mg/Kg nitroxoline, cage wash 0~2 hr, 41.8 mg/kg) was 113000 ng and 25240 ng and 15015 ng and 25300 ng and 47650 ng and 19320 ng and the “Mass of nitroxoline, 2~6 wash” value ([3]; individual mice, oral, equivalent of 41.8 mg/Kg nitroxoline, cage wash 2~6 hr, 41.8 mg/kg) was 6055 ng and 3618 ng and 8190 ng and 4635 ng and 4868 ng and 1960 ng. For the same compound, the “Mass of nitroxoline, 6~24 wash” value ([3]; individual mice, oral, equivalent of 41.8 mg/Kg nitroxoline, cage wash 6~24 hr, 41.8 mg/kg) was 296 ng and 158 ng and 246 ng and 286 ng and 227 ng and 190 ng, the “Mass of nitroxoline in urine, 0-2 hr” value ([3]; individual mice, oral, equivalent of 41.8 mg/Kg nitroxoline, urine 0-2 hr, 41.8 mg/kg) was 51600 ng and 84300 ng and 31970 ng and 107380 ng and 31122 ng and 120000 ng and the “Mass of nitroxoline in urine, 2-6 hr” value ([3]; individual mice, oral, equivalent of 41.8 mg/Kg nitroxoline, urine 2-6 hr, 41.8 mg/kg) was 3308.5 ng and 5263.2 ng and 1084 ng and 17458 ng and 3500 ng and 1846 ng. The “Mass of nitroxoline in urine, 6-24 hr” value ([3]; individual mice, oral, equivalent of 41.8 mg/Kg nitroxoline, urine 6-24 hr, 41.8 mg/kg) was 37.5 ng and 101.64 ng and 10.4 ng and 51 ng and 73 ng and 79.6 ng, the “Total mass of nitroxoline in urine and wash, Mean” value ([3]; mean of mice, oral, equivalent of 41.8 mg/Kg nitroxoline, 0-24 hr, 41.8 mg/kg) was 122573 ng and the “f (%): percentage of total mass of excreted drug versus the dose amount, Mean” value ([3]; mean of mice, oral, equivalent of 41.8 mg/Kg nitroxoline, 41.8 mg/kg) was 22.3%. For the same compound, the “Mass of nitroxoline, 0~2 wash, Mean” value ([3]; mean of mice, oral, equivalent of 41.8 mg/Kg nitroxoline, cage wash 0~2 hr, 41.8 mg/kg) was 40921 ng, the “Mass of nitroxoline, 2~6 wash, Mean” value ([3]; mean of mice, oral, equivalent of 41.8 mg/Kg nitroxoline, cage wash 2~6 hr, 41.8 mg/kg) was 4888 ng and the “Mass of nitroxoline, 6~24 wash, Mean” value ([3]; mean of mice, oral, equivalent of 41.8 mg/Kg nitroxoline, cage wash 6~24 hr, 41.8 mg/kg) was 234 ng. For the same compound, the “Mass of nitroxoline in urine, 0-2 hr, Mean” value ([3]; mean of mice, oral, equivalent of 41.8 mg/Kg nitroxoline, urine 0-2 hr, 41.8 mg/kg) was 71062 ng, the “Mass of nitroxoline in urine, 2-6 hr, Mean” value ([3]; mean of mice, oral, equivalent of 41.8 mg/Kg nitroxoline, urine 2-6 hr, 41.8 mg/kg) was 5410 ng and the “Mass of nitroxoline in urine, 6-24 hr, Mean” value ([3]; mean of mice, oral, equivalent of 41.8 mg/Kg nitroxoline, urine 6-24 hr, 41.8 mg/kg) was 58.8 ng. The “increase of drug excretion in the urine as compared to nitroxoline” value ([3]; mice, dosed at the equivalent amount of nitroxoline in moles) was “approximately two times greater”.
